The record followed here is US20110136792A1, “NOVEL CARBOXYLIC ACID ANALOGS AS GLYCOGEN SYNTHASE ACTIVATORS” (priority 2009, published 2011).

In the assay the test system is glycogen synthase. Description: Glycogen Synthase (GS) Assay. It is filed as biochemical. Particulars: coupled pyruvate kinase/lactate dehydrogenase assay, absorbance at 340 nm; for EC50: compound concentration needed to give 50% maximum activation; for GS SC200: compound concentration needed to stimulate 200% of the enzyme activity. The protocol: The following tests were carried out in order to determine the activity of the compounds of formula (I).
Twelve μL per well of substrate solution containing glycogen (4.32 mg/ml), 2.67 mM UDP-glucose, 21.6 mM phospho(enol)pyruvate and 2.7 mM NADH in 30 mM glycylglycine, pH 7.3 buffer was added into a polystyrene 384-well assay plate (BD Biosciences).
Compound solutions (8 μL/well) at various concentrations (0-300 μM) were added to the assay plate (columns 5-24). Compound solution contains 30 mM glycylglycine, pH 7.3, 40 mM KCl, 20 mM MgCl2, 9.2% DMSO, with (columns 15-24) or without (columns 5-14) 20 mM glucose 6-phosphate.
Enzyme solution (12 μL/well) containing glycogen synthase (16.88 μg/ml), pyruvate kinase (0.27 mg/ml), lactate dehydrogenase (0.27 mg/ml) in 50 mM Tris-HCl, pH 8.0, 27 mM DTT and bovine serum albumin (BSA, 0.2 mg/ml) was added to the assay plate (columns 3-24). As a blank control, enzyme solution without glycogen synthase was added into the top half wells of columns 1-2. To the bottom half wells of columns 1-2 were added a known activator, glucose 6-phosphate (at final concentration 5 mM) in addition to the enzyme solution. The reaction mixture was incubated at room temperature. The assay plate was then read for absorbance at 340 nm on an Envision reader every 3 minutes up to a total of 15 minutes.
The enzyme activity (with or without compound) was calculated by the reaction rate and represented by the optical density change (δOD) per minute. Percent stimulation of glycogen synthase activity by a compound at various concentrations was calculated by the following formula: […]
Where Rs is the reaction rate of the enzyme in the presence of compound and Rt is the reaction rate of the enzyme in the absence of compound.
SC200 is defined as the compound concentration that is needed to stimulate 200% of the enzyme activity. EC50 is defined as the compound concentration that is needed to give 50% maximum activation.
Compounds from Examples 1 through Example 64 were assayed according to assay procedures described above and the result is listed in Table 1 below: […]

As usually defined, the EC50 is the midpoint of the concentration-response curve. High values mean a less potent agent, low ones a more potent agent. As for `O=C(O)C1CCS(=O)(=O)N1Cc1cccc(COc2ccc(-c3cc(F)c(F)cc3F)cc2)c1` (racemic) [Example 38, 1,1-Dioxo-2-[3-(2′,4′,5′-trifluoro-biphenyl-4-yloxymethyl)-benzyl]-1lambda*6*-isothiazolidine-3-carboxylic acid], the EC50 came out at 0.13 µM and the “GS SC200” value worked out at 0.05 µM.

Turning to `Cc1cc(F)c(F)cc1-c1ccc(OCc2cccc(CN3C(C(=O)O)CCS3(=O)=O)c2)cc1` (racemic) [Example 39, 2-[3-(4′,5′-Difluoro-2′-methyl-biphenyl-4-yloxymethyl)-benzyl]-1,1-dioxo-1lambda*6*-isothiazolidine-3-carboxylic acid], the EC50 came to 0.18 µM and the “GS SC200” value came out at 0.03 µM.

As to `O=C(O)C1CCS(=O)(=O)N1Cc1cccc(COc2ccc(-c3cc(F)c(F)cc3Cl)cc2)c1` (racemic) [Example 40, 2-[3-(2′-Chloro-4′,5′-difluoro-biphenyl-4-yloxymethyl)-benzyl]-1,1-dioxo-1lambda*6*-isothiazolidine-3-carboxylic acid], the EC50 is 0.2 µM and the “GS SC200” value is 0.04 µM.

In the case of `COc1cc(F)c(F)cc1-c1ccc(OCc2cccc(CN3C(C(=O)O)CCS3(=O)=O)c2)cc1` (racemic) [Example 43, 2-[3-(4′,5′-Difluoro-2′-methoxy-biphenyl-4-yloxymethyl)-benzyl]-1,1-dioxo-1lambda*6*-isothiazolidine-3-carboxylic acid], the EC50 amounted to 0.19 µM and the “GS SC200” value came to 0.03 µM.

For `COc1cc(F)c(F)cc1-c1ccc(OCc2cccc(CN(CC(=O)O)C(=O)C(C)(C)C)c2)cc1` [Example 1, [[3-(4′,5′-Difluoro-2′-methoxy-biphenyl-4-yloxymethyl)-benzyl]-(2,2-dimethyl-propionyl)-amino]-acetic acid], the EC50 came out at 1.34 µM and the “GS SC200” value was determined as 0.21 µM.

For the compound `COc1cc(F)c(F)cc1-c1ccc(OCc2cccc(CN(CC(=O)O)C(=O)CC(C)C)c2)cc1` [Example 2, [[3-(4′,5′-Difluoro-2′-methoxy-biphenyl-4-yloxymethyl)-benzyl]-(3-methyl-butyryl)-amino]-acetic acid], the EC50 worked out at 1.08 µM and the “GS SC200” value was 0.13 µM.

Regarding `COc1cc(F)c(F)cc1-c1ccc(OCc2cccc(CN(CC(=O)O)C(=O)N3CCOCC3)c2)cc1` [Example 3, [[3-(4′,5′-Difluoro-2′-methoxy-biphenyl-4-yloxymethyl)-benzyl]-(morpholine-4-carbonyl)-amino]-acetic acid], a half-maximal effect (EC50) was put at 0.69 µM and the “GS SC200” value is 0.11 µM.

For the compound `COc1cc(F)c(F)cc1-c1ccc(OCc2cccc(CN(CC(=O)O)C(=O)C3CCC3)c2)cc1` [Example 4, {Cyclobutanecarbonyl-[3-(4′,5′-difluoro-2′-methoxy-biphenyl-4-yloxymethyl)-benzyl]-amino}-acetic acid], the EC50 was 0.72 µM and the “GS SC200” value is 0.18 µM.

In the case of `COc1cc(F)c(F)cc1-c1ccc(OCc2cccc(CN(CC(=O)O)C(=O)c3ccccc3)c2)cc1` [Example 5, {Benzoyl-[3-(4′,5′-difluoro-2′-methoxy-biphenyl-4-yloxymethyl)-benzyl]-amino}-acetic acid], the EC50 was determined as 0.45 µM and the “GS SC200” value was 0.09 µM.

Consider `COc1cc(F)c(F)cc1-c1ccc(OCc2cccc(CN(CC(=O)O)C(=O)OC(C)C)c2)cc1` [Example 6, {[3-(4′,5′-Difluoro-2′-methoxy-biphenyl-4-yloxymethyl)-benzyl]-isopropoxycarbonyl-amino}-acetic acid], for which the EC50 is 0.47 µM and the “GS SC200” value was 0.03 µM.

In the case of `CCS(=O)(=O)N(CC(=O)O)Cc1cccc(COc2ccc(-c3cc(F)c(F)cc3OC)cc2)c1` [Example 7, {[3-(4′,5′-Difluoro-2′-methoxy-biphenyl-4-yloxymethyl)-benzyl]-ethanesulfonyl-amino}-acetic acid], the EC50 was 0.31 µM and the “GS SC200” value is 0.04 µM.

With `COc1cc(F)c(F)cc1-c1ccc(OCc2cccc(CN(CC(=O)O)S(=O)(=O)c3ccccc3)c2)cc1` [Example 8, {Benzenesulfonyl-[3-(4′,5′-difluoro-2′-methoxy-biphenyl-4-yloxymethyl)-benzyl]-amino}-acetic acid], the EC50 amounted to 0.91 µM and the “GS SC200” value came to 0.17 µM.

With `COc1cc(F)c(F)cc1-c1ccc(OCc2cccc(CN(CC(=O)O)S(=O)(=O)C3CC3)c2)cc1` [Example 9, {Cyclopropanesulfonyl-[3-(4′,5′-difluoro-2′-methoxy-biphenyl-4-yloxymethyl)-benzyl]-amino}-acetic acid], the EC50 was 0.52 µM and the “GS SC200” value came to 0.06 µM.

For `COc1cc(F)c(F)cc1-c1ccc(OCc2cccc(CN(CC(=O)O)S(C)(=O)=O)c2)cc1` [Example 10, {[3-(4′,5′-Difluoro-2′-methoxy-biphenyl-4-yloxymethyl)-benzyl]-methanesulfonyl-amino}-acetic acid], the midpoint of the response, the EC50, lay at 0.29 µM and the “GS SC200” value amounted to 0.03 µM.

As to `CC(C)(C)C(=O)N(CC(=O)O)Cc1cccc(COc2ccc(-c3ccc(F)cc3F)cc2)c1` [Example 11, [[3-(2′,4′-Difluoro-biphenyl-4-yloxymethyl)-benzyl]-(2,2-dimethyl-propionyl)-amino]-acetic acid], a half-maximal response (EC50) required 3.67 µM and the “GS SC200” value was 0.97 µM.

For the compound `O=C(O)CN(Cc1cccc(COc2ccc(-c3ccc(F)cc3F)cc2)c1)C(=O)C1CC1` [Example 12, {Cyclopropanecarbonyl-[3-(2′,4′-difluoro-biphenyl-4-yloxymethyl)-benzyl]-amino}-acetic acid], the EC50 turned out to be 4.31 µM and the “GS SC200” value was 0.75 µM.

With `O=C(O)CN(Cc1cccc(COc2ccc(-c3ccc(F)cc3F)cc2)c1)C(=O)N1CCOCC1` [Example 13, [[3-(2′,4′-Difluoro-biphenyl-4-yloxymethyl)-benzyl]-(morpholine-4-carbonyl)-amino]-acetic acid], it took 0.93 µM to reach a half-maximal effect (EC50) and the “GS SC200” value is 0.10 µM.

Regarding `Cn1ccnc1C(=O)N(CC(=O)O)Cc1cccc(COc2ccc(-c3ccc(F)cc3F)cc2)c1` [Example 14, [[3-(2′,4′-Difluoro-biphenyl-4-yloxymethyl)-benzyl]-(1-methyl-imidazole-2-carbonyl)-amino]-acetic acid], it took 1.31 µM to reach a half-maximal effect (EC50) and the “GS SC200” value is 0.15 µM.

Take `O=C(O)CN(Cc1cccc(COc2ccc(-c3ccc(F)cc3F)cc2)c1)C(=O)c1cccnc1` [Example 15, [[3-(2′,4′-Difluoro-biphenyl-4-yloxymethyl)-benzyl]-(pyridine-3-carbonyl)-amino]-acetic acid]: the EC50 stood at 1.43 µM and the “GS SC200” value was determined as 0.15 µM.

In the case of `O=C(O)CN(Cc1cccc(COc2ccc(-c3ccc(F)cc3F)cc2)c1)C(=O)c1ccccn1` [Example 16, [[3-(2′,4′-Difluoro-biphenyl-4-yloxymethyl)-benzyl]-(pyridine-2-carbonyl)-amino]-acetic acid], a half-maximal effect (EC50) was put at 1.54 µM and the “GS SC200” value stood at 0.43 µM.

As to `COCC(C)C(=O)N(CC(=O)O)Cc1cccc(COc2ccc(-c3ccc(F)cc3F)cc2)c1` (stereo not drawn) [Example 17, [[3-(2′,4′-Difluoro-biphenyl-4-yloxymethyl)-benzyl]-(3-methoxy-2-methyl-propionyl)-amino]-acetic acid], the EC50 was determined as 1.53 µM and the “GS SC200” value was 0.36 µM.
